Tested on: ob/ob mice
Assay: Oral glucose tolerance test (OGTT) in ob/ob mice
Type: in vivo
Details: bi-daily 50 mg/kg during 28 days, AUC from -15 to 120 min
Experimental: Ob/ob or obese mice are leptin-deficient mice that eat excessively and become profoundly obese, hyperinsulinemic and hyperglycemic. It is an animal model of type II diabetes. Such model can be used for oral glucose tolerance tests (OGTTs). A total of sixteen (16) male ob/ob mice (6 weeks of age) were obtained from Harlan. Upon arrival to the animal unit, mice were housed 4 per cage in rodent cages mounted with feeders containing regular chow. The mice were put in a 12/12h light-dark cycle (light from 0600-1800 h) with controlled temperature conditions (22-24° C.). Fed blood glucose and body-weight was measured on day −2 in the morning between 08:00 AM and 09:00 AM. Animals were randomized into 2 groups according to fed glucose levels (on day −2). […]
Day 1 is the first day of dosing. […] At −15 min, blood glucose was measured (using a glucose analyzer) and animals were dosed with compounds of the invention or vehicle. At time point 0, blood glucose was measured again and glucose was administered by oral gavage (1 g/kg glucose). The blood glucose was then measured at time points 15, 30, 45, 60 and 120 minutes. […] The percentages of AUC inhibition induced by compounds of the invention were calculated as follows: % of AUC inhibition: [1−(AUC compound/AUC vehicle)]*100.

SMILES: COc1ccccc1-c1ccc(C(=O)N2[C@@H](c3ccccc3Cl)CC[C@H]2C(=O)O)cc1 [Compound 1, (2S,5R)-5-(2-chlorophenyl)-1-(2′-methoxy-[1,1′-biphenyl]-4-carbonyl)pyrrolidine-2-carboxylic acid]
- % of AUC inhibition (blood glucose AUC, OGTT): 40%

— patent publication US10358416B2, “Substituted pyrrolidines as G-protein coupled receptor 43 agonists” (Ogeda SA, priority 2009, dated 2019)
